Patent publication US9696323B2, “Biomarkers for chagas disease related cardiomyopathy” (THE BOARD OF REGENTS OF THE UNIVERSITY OF TEXAS SYSTEM, priority 2013, dated 2017)

Tested on: T. cruzi
Assay: Oxidative modification (carbonylation) of plasma proteins in chagasic rats treated with PBN and/or BZ
Type: in vivo, rat
Conditions: chagasic rat plasma; 5 of 11 carbonylated proteins (CFB, CFH, SERPRINA1, SERPINC1, PLG)
Text: Certain embodiments include biomarkers identified in a previous study. Parasite persistence and oxidative damage in the heart are known to be of pathological significance during Chagas disease (Zacks et al., (2005) An Acad Bras Cienc, 77, 695-715; Gupta et al., (2009) Interdiscip Perspect Infect Dis, 2009, 190354). […] In the previous study the inventors identified 92 proteins that were differentially expressed or oxidized in chagasic plasma. Functional analysis allocated a majority of these proteins to inflammation/immunity and lipid metabolism categories, and to molecular pathways associated with cardiovascular dysfunction, e.g., myocardial infarction, hypertrophy, and fibrosis, and pulmonary embolism and hypertension. Some proteins in chagasic rats treated with PBN and/or BZ were allocated to curative pathways (immune regulation and cardiac remodeling). The 2D-GE results were validated by Western blotting. […] Increased plasma levels of GSN, MYL2, and VIM were directly correlated with the severity of cardiac disease in human chagasic patients. […] These findings have utility in diagnosing disease severity and designing suitable therapy for management of human chagasic patients. […]

With `CC(C)(C)/[N+]([O-])=C/c1ccccc1` [PBN] the “oxidative modification of inflammation-associated plasma proteins” value was “prevented the oxidative modification of five of these proteins”.
